{
  "source": "patent US20230096761A1",
  "about": "“NOVEL COMPOSITION BASED ON POLYCAFFEOYLQUINIC ACIDS, COSMETIC USE THEREOF AND COSMETIC COMPOSITIONS COMPRISING SAME” (Societe D'Exploitation De Produits Pour Les Industries …, priority 2018, published 2023)",
  "tested_on": "normal human keratinocytes",
  "assay": "Keratinocyte differentiation: filaggrin immunolabeling normalized to nuclei",
  "type": "cell-based",
  "conditions": "positive reference 1 mMol/L, 72 hours",
  "procedure": "To do this, normal human keratinocytes were cultured at 37° C. and 5% CO2. After a period of 4 days, they were treated with the products whose action it is desired to evaluate. After culturing for a further 72 hours at 37° C. and 5% CO2 with the test products, the cell lawns were rinsed, dried and then fixed with glacial methanol. Filaggrin, a keratinocyte differentiation marker, was detected and quantified by fluorescent immunolabeling with an anti-filaggrin primary antibody and a fluorescent secondary antibody to reveal the former. The nuclei were detected and quantified by marking with Hoechst, a fluorescent stain which binds to DNA and thus labels the nuclei. This last labeling was performed to normalize the results obtained previously on filaggrin. An increase in the filaggrin (area of labeling)/nuclei (area of labeling) ratio is evidence of an increase in the differentiation of the epidermal keratinocytes, and consequently of reinforcement of the barrier effect of the epidermis, which constitutes one of the factors of the reinforcement of the state of moisturization of the skin. An increase in keratinocyte differentiation makes it possible to reinforce the barrier effect of the human epidermis, and consequently to decrease the unesthetic effects that may be caused by the dehydration of human skin.",
  "note": "Marks after values point to notes of the source that are not given here.",
  "data": [
    {"smiles": "[Ca+2].[Cl-].[Cl-]", "note": "[CaCl2]", "values": [
      {"measurement": "Filaggrin (area of labeling)/nuclei (area of labeling)", "result": "0.0245 ± 0.0045"},
      {"measurement": "% stimulation vs control", "setting": "filaggrin/nuclei", "result": "621* %"}
    ]}
  ]
}
